From article PMC11466185, “Mechanisms and efficacy of small molecule latency-promoting agents to inhibit HIV reactivation ex vivo” (JCI Insight, 2024) come the findings set out here.

Assay [1] deals with HIV transcripts (TAR, LLTR, Pol, PolyA, TatRev). As to the kind of experiment: Latency reversal assay: cell-associated HIV transcripts (RT-ddPCR) 24 hours after anti-CD3/CD28 activation of PBMCs from ART-suppressed PWH. The format is cell-based. Also noted: key to TatRev: % of activated DMSO control, normalized to 1 μg total RNA; Elongated (LLTR) HIV transcripts, median relative to activated DMSO, initial screening / Midtranscribed (Pol) HIV transcripts, median relative to activated DMSO, initial screening / Multiply spliced (TatRev) HIV transcripts, median relative to activated DMSO, initial screening: concentration or dose not given beside the values. To be noted: for HIV transcriptional elongation, ratio LLTR/TAR: Figure 3B; for HIV transcriptional completion, ratio PolyA/LLTR: Figure 3C; for Effect on HIV transcripts in the initial drug screen (in words): 24 hours after activation; for Pol HIV transcripts (DMSO αCD3/28 = 100) / PolyA HIV transcripts (DMSO αCD3/28 = 100) / TatRev HIV transcripts (DMSO αCD3/28 = 100): αCD3/28-activated, ruxolitinib 4μM, triptolide 25-50nM, alvocidib 40nM, dinaciclib 8nM, AZD4573 8nM, quercetin 5μM, pladienolide B 10nM, isoginkgetin 25μM, herboxidiene 5nM, KRIBB11 2.5μM, tanespimycin 5μM, mithramycin A 25nM; for PolyA/LLTR / TatRev/PolyA / LLTR/TAR: DMSO+CD3/28 = 1, Fig 3B, C and D; for PolyA / TatRev: DMSO+αCD3/28 = 100, Fig 3A. In outline: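 PBMCs from ART-suppressed people with HIV (6 × 10^6 cells/well) treated with drug in DMSO, activated with anti-CD3/CD28 beads with antiretrovirals, harvested after 24 hours. TAR, LLTR, Pol, PolyA and TatRev transcripts measured by RT-ddPCR, normalized to 1 μg total RNA, expressed as % of activated DMSO control.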

The subject of the next assay is PBMCs. The experiment in a line: Total number of live cells (proliferation) by trypan blue staining at day 6. The format is cell-based, human. To be noted: for Total live cell numbers (proliferation) compared with activated DMSO (in words) / Total number of live cells (Fig 6A): day 6; for Total live cell numbers (proliferation) compared with activated DMSO (in words): Figure 6A; for Fig 6B: total live cells relative to DMSO+CD3/28: DMSO+CD3/28 = 100. The protocol: Some of our candidate LPAs can block the effects of T cell activation, which could affect T cell proliferation. Therefore, we evaluated the extent to which variations in the level of infected cells may contribute to reductions in different HIV RNA transcripts. We measured the total number of viable cells (as a measure of proliferation) and the conserved U3-U5 LTR HIV DNA region (as a measure of total infection frequency) at day 6.
(A) After 6 days, the total number of live cells was measured by trypan blue staining and then normalized to the levels of the activated DMSO (% of activated DMSO). All conditions were tested in the presence of CD3^+/CD28^+ T cell–activating beads, except for the unactivated DMSO condition. Bars indicate medians, and different colors indicate individual study participants. Comparisons were performed using Wilcoxon’s signed-rank test. (B) Total cellular DNA was extracted, and the levels of U3-U5 HIV DNA were measured to quantify infection frequency at 6 days. HIV DNA levels were normalized to copies per 10^6 cells using the input of cellular DNA (assuming 1 μg of total DNA corresponds to 160,000 cells) and then normalized to the activated DMSO control (% of activated DMSO). Bars indicate medians, and different colors indicate individual study participants.

Setting [2] is: 24 hours, compared with activated DMSO.
Where [3] appears, read: initial screening, 2 participants, 24 hours, Supplemental Figure 2.
Setting [4] is: 2.5μM, 24 h after αCD3/28 activation, each column one participant.

Values joined by “and” are separate entries in the source; they are usually repeats but may differ in a detail not shown here. Equal entries are not always repeated.

Consider `CC(C)[C@]12O[C@H]1[C@@H]1O[C@]13[C@]1(O[C@H]1C[C@H]1C4=C(CC[C@@]13C)C(=O)OC4)[C@@H]2O` [triptolide], for which, in assay [1] (setting [2]), the “HIV transcriptional elongation, ratio LLTR/TAR” value was “no impact” and the “HIV transcriptional completion, ratio PolyA/LLTR” value was “reduced completion”. Further, the “HIV multiple splicing, ratio TatRev/PolyA” value in assay [1] (24 hours, compared with activated DMSO, Figure 3D) was “reduce HIV multiple splicing”. The “Decrease in initiated TAR transcripts” value in assay [1] (after activation, relative to activated DMSO) is “more than 95%”. Moreover, the “Multiply spliced (TatRev) HIV transcripts, median relative to activated DMSO, initial screening” value in assay [1] (initial screening, 2 participants, 24 hours, Figure 1B, Supplemental Figure 2) is 0%. For the same molecule, in assay [1] (setting [3]), the “Elongated (LLTR) HIV transcripts, median relative to activated DMSO, initial screening” value is 21% and the “Midtranscribed (Pol) HIV transcripts, median relative to activated DMSO, initial screening” value was found to be 9%. Further, in the assay with PBMCs, the “Total live cell numbers (proliferation) compared with activated DMSO (in words)” value was “significantly lower”.
As for mithramycin A, the “Effect on HIV transcripts in the initial drug screen (in words)” value in assay [1] (initial screening, 2 participants) is “no effect after 24 hours”; in assay [1] (initial screening, 2 participants, listed as Mithramycin A) it was “lack of an effect at 24 hours”. Besides, in the assay on PBMCs, the “Total live cell numbers (proliferation) compared with activated DMSO (in words)” value is recorded as “significantly lower”.
As for `C=CCNC1=C2C[C@@H](C)C[C@H](OC)[C@H](O)[C@@H](C)/C=C(\C)[C@H](OC(N)=O)[C@@H](OC)/C=C\C=C(/C)C(=O)NC(=CC1=O)C2=O` [tanespimycin], the “HIV transcriptional elongation, ratio LLTR/TAR” value in assay [1] (setting [2]) is reported as “inhibited”. Moreover, in assay [1] (setting [3]), the “Elongated (LLTR) HIV transcripts, median relative to activated DMSO, initial screening” value is 49% and the “Midtranscribed (Pol) HIV transcripts, median relative to activated DMSO, initial screening” value is 31%. Besides, the “Total live cell numbers (proliferation) compared with activated DMSO (in words)” value in the assay on PBMCs is “significantly lower”.
For `CNc1ccc([N+](=O)[O-])c(Nc2ccc3[nH]ncc3c2)n1` [KRIBB11], in assay [1] (setting [4]), the “LLTR HIV transcripts (DMSO+αCD3/28 = 100)” value was 71.02 and 48.35 and 38.5 and 36.33 and 35.09 and 15.92 and 24.32. In addition, in assay [1] (setting [4]), the “Pol HIV transcripts (DMSO+αCD3/28 = 100)” value was 19.01 and 13.73 and 14.61 and 76.94 and 12.5 and 1.36 and 0. Also, the “TAR HIV transcripts (DMSO+αCD3/28 = 100)” value in assay [1] (setting [4]) was 122.57 and 166.06 and 91.93 and 75.64. Also, the “TatRev HIV transcripts (DMSO+αCD3/28 = 100)” value in assay [1] (setting [4]) is 11.03 and 9.21 and 38.96 and 12.13 and 2.02 and 0 and 8.77. The “HIV transcriptional elongation, ratio LLTR/TAR” value in assay [1] (setting [2]) is recorded as “inhibited”. The “HIV transcriptional completion, ratio PolyA/LLTR” value in assay [1] (setting [2]) was “reduced completion”. Besides, the “Reduction of multiply spliced or completed HIV transcripts in drug screen (selection as candidate LPA)” value in assay [1] (initial screening, 2 participants, 24 hours) is reported as “more than 50%”. In addition, in assay [1] (setting [3]), the “Elongated (LLTR) HIV transcripts, median relative to activated DMSO, initial screening” value is recorded as 60%. Besides, the “Midtranscribed (Pol) HIV transcripts, median relative to activated DMSO, initial screening” value in assay [1] (setting [3]) came to 16%. In addition, the “Pol HIV transcripts (DMSO αCD3/28 = 100)” value in assay [1] (participant 2027) is recorded as 73.68; in assay [1] (participant 2147a) it was 33.33; in assay [1] (participant 2256) it was 169.23; in assay [1] (participant 2747) it was 8.97. For the same molecule, the “PolyA HIV transcripts (DMSO αCD3/28 = 100)” value in assay [1] (participant 2027) is 106.67; in assay [1] (participant 2147a) it was 22.8; in assay [1] (participant 2256) it was 89.76; in assay [1] (participant 2461), 176.92; in assay [1] (participant 2747), 19.67. Further, the “TatRev HIV transcripts (DMSO αCD3/28 = 100)” value in assay [1] (participant 2027) is recorded as 11.11; in assay [1] (participant 2147a), 46.99; in assay [1] (participant 2256), 84.19; in assay [1] (participant 2747), 30. In addition, the “Multiply spliced HIV transcripts (TatRev) (Fig 1B)” value in assay [1] (study participant 150a, 24 hours) is on record as 11.03 % of activated DMSO; in assay [1] (study participant 152, 24 hours), 9.21 % of activated DMSO. Also, the PolyA/LLTR in assay [1] (study participant 150a) worked out at 0.3562; in assay [1] (study participant 152) it was 0.4136; in assay [1] (study participant 163), 0.6494; in assay [1] (study participant 1379), 0.3046; in assay [1] (study participant 2147b), 0.5626; in assay [1] (study participant 2256) it was 0.2703. Besides, in assay [1] (study participant 5557), the PolyA/LLTR came out at 0.6238. Besides, the TatRev/PolyA in assay [1] (study participant 150a) amounted to 0.4361; in assay [1] (study participant 152), 0.4605; in assay [1] (study participant 163), 1.558; in assay [1] (study participant 1379), 0; in assay [1] (study participant 2147b), 0.4866; in assay [1] (study participant 2256), 0.2127. The TatRev/PolyA in assay [1] (study participant 5557) was 0.5784. Further, the PolyA in assay [1] (study participant 150a) came out at 25.3; in assay [1] (study participant 152), 20; in assay [1] (study participant 163), 25; in assay [1] (study participant 1379) it was 4.85; in assay [1] (study participant 2147b), 34.68; in assay [1] (study participant 2256), 9.49. Moreover, in assay [1] (study participant 5557), the PolyA is listed as 15.17. Also, the TatRev in assay [1] (study participant 150a) is listed as 11.03; in assay [1] (study participant 152) it was 9.21; in assay [1] (study participant 163) it was 38.96; in assay [1] (study participant 1379), 0; in assay [1] (study participant 2147b), 12.13; in assay [1] (study participant 2256), 2.02. In assay [1] (study participant 5557), the TatRev worked out at 8.77. Besides, the LLTR/TAR in assay [1] (study participant 1379) was determined as 0.1731; in assay [1] (study participant 2147b), 0.3199; in assay [1] (study participant 2256), 0.2113; in assay [1] (study participant 5557), 0.3215. In the assay on PBMCs, the “Total live cell numbers (proliferation) compared with activated DMSO (in words)” value is on record as “did not change proliferation rates”. Further, the “Fig 6B: total live cells relative to DMSO+CD3/28” value in the assay with PBMCs (participant 2027) turned out to be 80; with PBMCs (participant 2147a) it was 78.71; with PBMCs (participant 2147b) it was 84.85; in the assay on PBMCs (participant 2256), 100; with PBMCs (participant 2461), 133.29; in the assay on PBMCs (participant 2747), 114.29. Besides, the “Total number of live cells (Fig 6A)” value in the assay with PBMCs (study participant 150a) is reported as 109.33 % of activated DMSO; in the assay with PBMCs (study participant 156), 86.05 % of activated DMSO; with PBMCs (study participant 163), 93.17 % of activated DMSO; with PBMCs (study participant 2027), 77.91 % of activated DMSO; with PBMCs (study participant 2147a), 131.05 % of activated DMSO; in the assay on PBMCs (study participant 2147b) it was 144.41 % of activated DMSO. In addition, the “Total number of live cells (Fig 6A)” value with PBMCs (study participant 2256) was 80.69 % of activated DMSO; in the assay on PBMCs (study participant 2461) it was 93.23 % of activated DMSO; in the assay on PBMCs (study participant 2747), 107.08 % of activated DMSO.
